{"source": "patent US10849865B2", "about": "“Method of reducing neuronal cell death with haloalkylamines” (THE UNIVERSITY OF MONTANA, priority 2013, dated 2020)", "key": {"IL-1β": {"test_system": "IL-1β", "assay": "Gene array analysis of cortical tissue after severe TBI: IL-1β", "conditions": "32 hours after the injury (treatment at 8 hours + 24 hours); versus uninjured controls", "source_text": "(§2) For experiments requiring TBI, a rat model was used. Male Wistar rats (350-500 g) were obtained from Charles River Laboratories (Wilmington, Mass.) and housed with a 12-hour light/dark cycle and ad libitum access to food and water. Severe TBI was induced using the lateral fluid percussion (LFP) procedure as previously described (Rau et al., 2012, J Trauma and Acute Care Surgery 73:S165). Briefly, a 5 mm trephination was made over the right hemisphere equidistant from the lambda and the bregma. Animals were given a fluid pulse to the brain at 1.9-2.3 atm of pressure for 20 msec. All animals experienced apnea and were manually ventilated until normal breathing occurred. […] Saline treated animals underwent the same tail vein injection procedure receiving only pre-warmed saline.\n(§3) This time point was chosen in an effort to detect possible gene changes that would affect the development of secondary damage."}, "CCL2": {"test_system": "CCL2", "assay": "Gene array analysis of cortical tissue after severe TBI: CCL2", "conditions": "32 hours after the injury (treatment at 8 hours + 24 hours); versus uninjured controls", "source_text": "as §2, §3"}, "[1]": {"test_system": "rat lateral fluid percussion injury (LFP) model of severe TBI", "assay": "Morris water maze (MWM) cognitive function after severe TBI", "assay_type": "in vivo", "method": "The Morris water maze (MWM) was used to assess the impact of phenoxybenzamine on cognitive function (learning and memory) following TBI. […] Pre-acclimation began on day 24 post-TBI. The training phase began on day 25 post-injury, and the probe trial was conducted on day 30 post-injury."}, "MyD88": {"test_system": "MyD88", "assay": "Gene array analysis of cortical tissue after severe TBI: MyD88", "conditions": "32 hours after the injury (treatment at 8 hours + 24 hours); versus uninjured controls", "source_text": "as §2, §3"}, "[2]": {"test_system": "rat hippocampal slice cultures exposed to oxygen-glucose deprivation (OGD)", "assay": "Rat hippocampal slice culture oxygen-glucose deprivation (RHSC-OGD) model, propidium iodide staining", "assay_type": "cell-based", "method": "All experimental animal procedures were approved by the University of Montana Institutional Animal Care and Use Committee in accordance with National Institutes of Health guide for the care and use of Laboratory animals (NIH Publications No. 8023). Hippocampal slice cultures were prepared from the brains of 7-day-old Sprague-Dawley rat pups as previously described (Selkirk et al., 2005, Eur J Neur 21:2291). After 7 days in culture, slices were exposed to oxygen-glucose deprivation (OGD). A glucose free balanced salt solution (BSS) composed of 120 mM NaCl, 5 mM KCl, 1.25 mM NaH2PO4, 2 mM MgSO4, 2 mM CaCl2, 25 mM NaHCO3, 20 mM HEPES, 25 mM sucrose; pH 7.3 was bubbled for one hour with 5% CO2/95% N2 at 10 L/hour. Slices were washed 6 times in deoxygenated SBSS to remove residual glucose, transferred into deoxygenated SBSS, and placed in a 37° C. chamber (Pro-Ox) with an oxygen feedback sensor that maintained gas levels at 0.1% O2, 5% CO2, 94.4% Nitrogen for 60 min. After OGD, the slices were immediately transferred back into pre-warmed Neurobasal media (containing B27 without anti-oxidants) under normal oxygen conditions. […] Neuronal damage was determined by staining slices with propidium iodide (PI; Molecular Probes, Eugene, Oreg.) and quantifying the relative fluorescence intensity (excitation 540/emission 630) using ImagePro Plus software (Media Cybernetics, Silver Springs, Md.). Propidium iodide […] was added to the media at a concentration of 2 μM (Noraberg et al., 1999, Brain Research Protocols 3:278), 4 hours prior to OGD. Images were taken of the hippocampal slices prior to OGD to establish baseline fluorescence. After OGD, slices were placed in normal media containing 2 μM PI and imaged again at 24 hours post-OGD using fluorescence optics with an Olympus IMT-2 microscope and a Hamamatsu camera. The total fluorescent intensity in each slice was determined using ImagePro Plus software (Media Cybernetics, Silver Springs, Md.) and all values were expressed as the percent change from untreated slices exposed to OGD."}, "[3]": {"conditions": "stuffy nose, mild drowsiness, blurred vision, and upset stomach; cited from earlier work"}, "α-1 receptors": {"test_system": "α-1 receptors", "conditions": "8 days after a single administration; cited from earlier work"}, "[4]": {"test_system": "rat lateral fluid percussion injury (LFP) model of severe TBI", "assay": "Foot fault assessment after severe TBI (lateral fluid percussion)", "assay_type": "in vivo", "method": "Briefly, rats were set on an elevated grid. With each weight-bearing step, the paw may fall or slip off the wire grid. Each time the left forelimb (affected by damage to the right hemisphere) missed a placement on the wire rack it was recorded as a foot fault. The total number of steps (movement of each forelimb) that the rat used to cross the grid was counted, and the total numbers of foot faults for each forelimb was recorded.\n(§1) We selected the test dose for phenoxybenzamine based on current FDA approved levels. […] Assuming a typical adult weighs 70 kg, this represents 1.7 mg/kg body weight. Therefore, we selected a slightly lower, single, intravenous dose of 1 mg/kg body weight. This dose was administered at the clinically relevant time point of 8 hours after severe TBI. Therapeutic effectiveness was determined based on behavioral and cognitive outcomes."}, "calmodulin (CaM)/CaMKII": {"biological_target": "calmodulin (CaM)/CaMKII (Homo sapiens, UniProt P0DP23)", "conditions": "cited from earlier work"}, "[5]": {"test_system": "α-1 and α-2 adrenergic receptors", "conditions": "following intravenous administration; cited from earlier work"}, "[6]": {"test_system": "rat lateral fluid percussion injury (LFP) model of severe TBI", "assay": "Neurological severity scoring (NSS) after severe TBI (lateral fluid percussion)", "assay_type": "in vivo", "method": "Assessments were conducted on days 1, 7, 14, 21, and 30 by a blinded observer. Animals were scored from 0-16 with 0 indicating no impairment, and 16 indicating maximal impairment. Scoring criteria for a severe TBI was 16-10, a moderate TBI was 9-5 and a mild TBI was 4-1. Animals scoring and NSS of 9 or less on day 1 were identified as having a moderate/mild injury and were excluded.\nas §1"}, "[7]": {"test_system": "α-1 and α-2 adrenergic receptors", "conditions": "with secondary α-2 antagonism; cited from earlier work"}, "[8]": {"conditions": "administered 8 hours after TBI, probe trial day 30 post-injury"}, "[9]": {"conditions": "1 mg/kg body weight, over 30 days after TBI"}, "[10]": {"conditions": "1 mg/kg i.v. 8 hours after severe TBI, 24 hours or 7 days after the TBI"}}, "note": "Entries after “also recorded” stand apart in the source; their conditions may differ.", "data": [{"smiles": "CC(COc1ccccc1)N(CCCl)Cc1ccccc1", "note": "(stereo not shown) [phenoxybenzamine]", "values": [{"measurement": "IL-1β expression in cortical tissue after severe TBI", "setting": "IL-1β", "value": "no significant increase; also recorded: did not differ from uninjured controls; also recorded: did not have a significant increase"}, {"measurement": "CCL2 expression in cortical tissue after severe TBI", "setting": "CCL2", "value": "no significant increase; also recorded: did not differ from uninjured controls"}, {"measurement": "learning and memory after severe TBI (FIG. 4)", "setting": "[1]; Morris water maze latency and target quadrant time", "value": "significantly improved learning and memory"}, {"measurement": "MWM learning compared to un-injured sham controls", "setting": "[1]; administered 8 hours after TBI, any of the training days", "value": "not significantly different from the un-injured sham control animals"}, {"measurement": "MWM probe trial compared to un-injured sham controls", "setting": "[1]; [8]", "value": "did not differ from un-injured sham controls"}, {"measurement": "MWM probe trial, time spent searching the target quadrant", "setting": "[1]; [8]", "value": "approximately 28%"}, {"measurement": "MyD88 expression in cortical tissue after severe TBI", "setting": "MyD88", "value": "no significant increase; also recorded: did not differ from uninjured controls; also recorded: equivalent to uninjured controls"}, {"measurement": "prevention of neuronal death from OGD (propidium iodide fluorescence)", "setting": "[2]; 100 μM added at 2, 4, and 8 hours post-OGD", "value": "prevented neuronal death from OGD in all regions of the hippocampus"}, {"measurement": "prevention of neuronal death from OGD (propidium iodide fluorescence)", "setting": "[2]; 100 μM added at 16 hours post-OGD", "value": "prevented neuronal death only in the CA1 region of the hippocampus"}, {"measurement": "neuroprotection when delivered after OGD (FIG. 2)", "setting": "[2]; delivered up to 16 hours after OGD", "value": "significant neuroprotection"}, {"measurement": "side effects", "setting": "[3]", "value": "minimal"}, {"measurement": "α-1 receptors recovered", "setting": "α-1 receptors", "value": 50, "unit": "%"}, {"measurement": "behavioral function, foot fault assessments (FIG. 3B)", "setting": "[4]; [9]", "value": "significantly improved behavioral function"}, {"measurement": "foot fault scoring, difference from saline treated animals", "setting": "[4]; [10]", "value": "no significant differences"}, {"measurement": "inhibition of CaM/CaMKII activity", "setting": "calmodulin (CaM)/CaMKII", "value": "potent inhibitor"}, {"measurement": "time to peak effect of receptor antagonism", "setting": "[5]", "value": "approximately 1 hour"}, {"measurement": "behavioral function, neurological severity score (FIG. 3A)", "setting": "[6]; [9]", "value": "significantly improved behavioral function"}, {"measurement": "NSS, difference from saline treated animals", "setting": "[6]; [10]", "value": "no significant differences"}, {"measurement": "α-1 adrenergic antagonism", "setting": "[7]", "value": "potent α-1 adrenergic antagonist"}]}]}
